One data set deals with T1, Insulin-degrading enzyme (Homo sapiens, UniProt P14735).
T1 sequence (P14735 whole entry): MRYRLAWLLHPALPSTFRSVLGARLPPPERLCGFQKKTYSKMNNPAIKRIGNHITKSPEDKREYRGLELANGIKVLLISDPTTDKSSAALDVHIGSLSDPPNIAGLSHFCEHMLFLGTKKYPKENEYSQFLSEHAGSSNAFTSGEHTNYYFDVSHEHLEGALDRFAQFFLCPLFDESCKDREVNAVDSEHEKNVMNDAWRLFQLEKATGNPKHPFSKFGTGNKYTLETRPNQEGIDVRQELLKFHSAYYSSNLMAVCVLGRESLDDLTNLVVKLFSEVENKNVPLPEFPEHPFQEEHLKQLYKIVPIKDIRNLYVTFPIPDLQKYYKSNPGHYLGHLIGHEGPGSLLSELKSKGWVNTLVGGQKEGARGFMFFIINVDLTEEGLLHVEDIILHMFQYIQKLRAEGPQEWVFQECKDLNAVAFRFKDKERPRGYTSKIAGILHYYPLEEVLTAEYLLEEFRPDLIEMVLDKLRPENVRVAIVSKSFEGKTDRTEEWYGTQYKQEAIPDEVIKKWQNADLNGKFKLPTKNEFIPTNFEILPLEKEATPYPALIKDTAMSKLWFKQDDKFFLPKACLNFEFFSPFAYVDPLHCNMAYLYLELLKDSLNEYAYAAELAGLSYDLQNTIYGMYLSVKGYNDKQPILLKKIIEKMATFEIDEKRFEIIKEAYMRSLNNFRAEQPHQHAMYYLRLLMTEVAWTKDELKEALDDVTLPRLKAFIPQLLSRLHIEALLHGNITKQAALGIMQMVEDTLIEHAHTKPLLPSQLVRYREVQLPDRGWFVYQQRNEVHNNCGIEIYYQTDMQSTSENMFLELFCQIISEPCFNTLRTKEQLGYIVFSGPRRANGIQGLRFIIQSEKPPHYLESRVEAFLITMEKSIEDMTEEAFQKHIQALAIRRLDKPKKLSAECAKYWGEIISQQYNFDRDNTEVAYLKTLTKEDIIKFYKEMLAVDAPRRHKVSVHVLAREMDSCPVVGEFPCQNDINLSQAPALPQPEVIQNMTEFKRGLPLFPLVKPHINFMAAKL
Kind of data set: Activation of human recombinant IDE using ATTO 655-Cys-Lys-Leu-Val-Phe-Phe-Ala-Glu-Asp-trp as substrate incubated for 10 mins followed by substrate addition and measured after 20 mins by fluorescence spectrophotometer analysis.

Data set [1] can be described thus: Solubility of the compound at 100 uM. It counts as physicochemical.
The nature of data set [2]: Lipophilicity, logD of the compound in 1-octanol and phosphate buffer at pH 7.4 incubated for 2 hrs under shaking condition by LC-MS/MS analysis. It counts as physicochemical. The conditions noted are these: 1-octanol/phosphate buffer.
Data set [3] is described as follows: Dissociation constant, pKa of the compound. Type of data set: physicochemical.
Data set [4] is described as follows: Solubility of the compound at 15 uM. Type of data set: physicochemical.
A short description of data set [5]: Aqueous thermodynamic solubility of the compound in phosphate buffer/MeOH at pH 7.4 measured after 24 hrs by LC-MS/MS analysis. Type of data set: physicochemical. The note with it: read-out: Therm_solubility.
A short description of data set [6]: Stability in rat plasma assessed as half life at 10 uM. Type of data set: ADME, cell-free.

Converted amounts (≈) assume the structure as drawn. Some results are limits rather than exact numbers.

Data on 25 compounds can be found in ChEMBL document CHEMBL5154655, “Identification of indole-based activators of insulin degrading enzyme” (Eur J Med Chem, 2022).

Usually EC50 stands for the concentration that produces a half-maximal response. As to `O=C(NCCCn1ccnc1)NCCc1cn(S(=O)(=O)c2ccccc2)c2ccccc12`, on Insulin-degrading enzyme, the EC50 was 10.2 µM. The same measure, in the same setting: with `O=C(CCCc1cn(S(=O)(=O)c2ccsc2)c2ccccc12)NCCCn1ccnc1` the figure was 13.8 µM. Consider `O=C(CCCc1cn(C(=O)c2ccc(Cl)cc2)c2ccccc12)NCCCn1ccnc1`, for which the solubility result in data set [1] is listed as “Insoluble”. One may read the logD as the decadic logarithm of the distribution of all forms, ionised or not, between an organic phase and buffer at a given pH. The term pKa denotes the negative logarithm of the acid dissociation constant. Lower therefore signals a stronger acid or weaker base. As for `O=C(CCCc1cn(S(=O)(=O)c2ccccc2)c2ccccc12)NCCCn1ccnc1`, the EC50 on Insulin-degrading enzyme was 13.2 µM. Moreover, in data set [2], the logD at 2 h stood at 2.7. In data set [3], this compound yielded a pKa of 6.9. Moreover, the solubility result in data set [4] is “Soluble”. Turning to `O=C(CCCc1cn(-c2ccccc2)c2ccccc12)NCCCn1ccnc1`, the solubility result in data set [1] was “Insoluble”.

Regarding `O=C(CCCC1C(=O)Nc2ccccc21)NCCCn1ccnc1` (stereo unspecified), the EC50 on Insulin-degrading enzyme is 38.9 µM. Turning to `O=C(CCCc1cn(C(=O)c2ccc(F)cc2)c2ccccc12)NCCCn1ccnc1`, the solubility result in data set [1] was “Insoluble”.

Turning to `O=C(CCCCc1cn(S(=O)(=O)c2ccccc2)c2ccccc12)NCCCn1ccnc1`, the solubility entry in data set [1] is on record as “Insoluble”. Consider `O=C(CCCc1cn(S(=O)(=O)c2cccnc2)c2ccccc12)NCCCn1ccnc1`, for which the EC50 on Insulin-degrading enzyme was 26.9 µM. `O=C(CCCc1cn(S(=O)(=O)c2ccccc2)c2ccccc12)NCCCN1CCCC1`: the pKa in data set [3] was 8.8. Turning to `O=C(CCCc1cn(S(=O)(=O)c2cccc(F)c2)c2ccccc12)NCCCn1ccnc1`, the EC50 at Insulin-degrading enzyme is 10.2 µM. For the same compound, in data set [1], the solubility entry is reported as “Insoluble”.

For `O=C(CCCc1cn(S(=O)(=O)c2ccc(F)cc2)c2ccccc12)NCCCn1ccnc1`, in data set [1], the solubility entry is given as “Insoluble”.

For the compound `O=C(NCCCn1ccnc1)c1cn(S(=O)(=O)c2ccccc2)c2ccccc12`, the solubility entry in data set [1] is reported as “Insoluble”.

Regarding `CS(=O)(=O)n1cc(CCCC(=O)NCCCn2ccnc2)c2ccccc21`, on Insulin-degrading enzyme, the EC50 was 26.9 µM. As to `CN(CCCn1ccnc1)C(=O)CCCc1cn(S(=O)(=O)c2ccccc2)c2ccccc12`, the EC50 at Insulin-degrading enzyme is 14.1 µM.

As to `O=C(CCCc1nn(S(=O)(=O)c2ccccc2)c2ccccc12)NCCCn1ccnc1`, at Insulin-degrading enzyme, the EC50 was 12.3 µM. Usually half-life stands for the time in which the quantity being followed falls by half. `O=C(CCCc1cn(S(=O)(=O)c2cccs2)c2ccccc12)NCCCn1ccnc1`: the solubility thermodynamic at 24 h in data set [5] is 8.9 µM (≈ 4.06 µg/mL). Moreover, the half-life at 10 µM in data set [6] was over 24 h. In data set [2], this compound registered a logD at 2 h of 2.7. Consider `O=C(CCCc1cn(S(=O)(=O)c2ccccc2F)c2ccccc12)NCCCn1ccnc1`, for which the solubility result in data set [1] is recorded as “Insoluble”.

Turning to `O=C(CCc1cn(S(=O)(=O)c2ccccc2)c2ccccc12)NCCCn1ccnc1`, on Insulin-degrading enzyme, the EC50 is 15.5 µM.

Turning to `O=C(CCCc1cn(S(=O)(=O)c2cccc3nsnc23)c2ccccc12)NCCCn1ccnc1`, the solubility result in data set [1] is reported as “Insoluble”. On to `Cn1cnc(S(=O)(=O)n2cc(CCCC(=O)NCCCn3ccnc3)c3ccccc32)c1`, for which the EC50 on Insulin-degrading enzyme is 28.8 µM. Turning to `N[C@@H](Cc1cn(S(=O)(=O)c2ccccc2)c2ccccc12)C(=O)NCCCn1ccnc1`, at Insulin-degrading enzyme, the EC50 was 14.5 µM.

For the compound `O=C(CCCc1cn(S(=O)(=O)c2ccc(-c3ccccc3)cc2)c2ccccc12)NCCCn1ccnc1`, the solubility result in data set [1] was “Insoluble”.

`O=C(CCCc1cn(S(=O)(=O)c2ccccc2)c2ccccc12)NCCCc1c[nH]cn1` came in with a pKa in data set [3] of 7.

Regarding `O=C(CCCc1cn(C(=O)c2cccs2)c2ccccc12)NCCCn1ccnc1`, the EC50 at Insulin-degrading enzyme is 21.4 µM.
